Measurements from patent US9029389B2 (Institut Pasteur Korea, priority 2011, dated 2015).

Assays:
Human 5-lipoxygenase = target: T1, Human 5-lipoxygenase (Homo sapiens, UniProt P09917); assay: Activity of compounds against 5-LO enzyme (LTB4 measurement and/or fluorescence method); format: biochemical; details: for inhibition at 10 µM: 5-LO, single concentration of 10 uM in duplicate; for IC50: 6 or 11 point dose response in duplicate
T1 construct: purchased Cayman 60402; host or cells: insect cells
T1 sequence (P09917 1-674): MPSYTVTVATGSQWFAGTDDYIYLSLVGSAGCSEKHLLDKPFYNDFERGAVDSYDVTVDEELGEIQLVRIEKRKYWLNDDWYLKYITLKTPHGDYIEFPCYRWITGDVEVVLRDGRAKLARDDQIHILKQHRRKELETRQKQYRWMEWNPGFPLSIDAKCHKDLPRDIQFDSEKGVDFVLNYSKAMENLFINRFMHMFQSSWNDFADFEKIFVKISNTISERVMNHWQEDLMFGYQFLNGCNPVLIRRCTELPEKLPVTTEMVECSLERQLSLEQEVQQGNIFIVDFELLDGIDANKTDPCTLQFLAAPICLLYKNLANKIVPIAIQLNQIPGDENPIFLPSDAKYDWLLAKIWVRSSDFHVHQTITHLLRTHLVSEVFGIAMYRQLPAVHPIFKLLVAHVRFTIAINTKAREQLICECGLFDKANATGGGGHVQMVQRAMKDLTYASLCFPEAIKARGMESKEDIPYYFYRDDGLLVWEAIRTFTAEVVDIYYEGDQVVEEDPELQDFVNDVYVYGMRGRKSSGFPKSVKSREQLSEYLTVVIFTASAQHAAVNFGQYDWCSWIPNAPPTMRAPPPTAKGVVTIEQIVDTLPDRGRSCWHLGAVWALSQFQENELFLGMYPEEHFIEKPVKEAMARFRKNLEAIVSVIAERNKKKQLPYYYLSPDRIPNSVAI
Method in brief: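 Insect-cell human 5-LO preincubated 15 min at RT with compound (pH 7.4, 2 mM CaCl2, 0.1 mM ATP, 1% DMSO), then 3 uM arachidonic acid for 5 min at 37 °C; LTB4 quantified by EIA and/or LC/MS/MS. Alternatively, fluorescence of 5-HpETE via H2DCFDA, 100 uM ATP, 3 uM arachidonic acid, 5 min, RT; single 10 uM screen then 6- or 11-point IC50.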

| SMILES | inhibition at 10 µM (Human 5-lipoxygenase) [%] | melting point | IC50 (Human 5-lipoxygenase) [µM] |
| --- | --- | --- | --- |
| CCc1nc2ncccn2c1C(=O)NCc1ccc(-c2ccc(Cl)cc2)cc1 [compound 386, N-((4′-Chloro-[1,1′-biphenyl]-4-yl)methyl)-2-ethylimidazo[1,2-a]pyrimidine-3-carboxamide] | – | 184.8 °C | 1 to 20 |
| CCc1nc2cc(C)ccn2c1C(=O)NCc1ccc(Oc2ccc(OC(F)(F)F)cc2)cc1 [compound 219, 2-Ethyl-7-methyl-N-(4-(4-(trifluoromethoxy)phenoxy)benzyl)imidazo[1,2-a]pyridine-3-carboxamide] | > 69 | 133.6 °C | < 1 |
| CCc1nc2cc(Cl)ccn2c1C(=O)NCc1ccc(N2CCC(Cc3ccccc3)CC2)cc1 [compound 208, N-(4-(4-Benzylpiperidin-1-yl)benzyl)-7-chloro-2-ethylimidazo[1,2-a]pyridine-3-carboxamide] | > 69 | 63.8 °C | 1 to 20 |
| Cc1nc2ccc(Cl)cn2c1C(=O)NCc1ccc(OC(F)(F)F)cc1 [compound 184, 6-Chloro-2-methyl-N-(4-(trifluoromethoxy)benzyl)imidazo[1,2-a]pyridine-3-carboxamide] | < 40 | 192 to 193 °C | – |
| CCc1nc2ccc(Cl)cn2c1C(=O)NCc1ccc(Oc2ccc(OC(F)(F)F)cc2)nc1 [compound 189, 6-Chloro-2-ethyl-N-((6-(4-(trifluoromethoxy)phenoxy)pyridin-3-yl)methyl)imidazo[1,2-a]pyridine-3-carboxamide] | > 69 | 154 to 155 °C | < 1 |
| CCc1nc2ccc(Cl)cn2c1C(=O)OCc1ccc(-c2ccccc2)cc1 [compound 162, [1,1′-Biphenyl]-4-ylmethyl 6-chloro-2-ethylimidazo[1,2-a]pyridine-3-carboxylate] | 40 to 69 | 122.3 to 123 °C | – |
| CCc1nc2ccc(Cl)cn2c1C(=O)NCc1ccc(C2CCOCC2)cc1 [compound 363, 6-chloro-2-ethyl-N-(4-(tetrahydro-2H-pyran-4-yl)benzyl)imidazo[1,2-a]pyridine-3-carboxamide] | < 40 | > 195.5 °C (dec.) | – |
| CCc1nc2ccc(Cl)cn2c1CO [compound 146, (6-Chloro-2-ethylimidazo[1,2-a]pyridin-3-yl)methanol] | < 40 | 173.2 to 174.2 °C | – |
| CCc1nc2ccc(Br)cn2c1C(=O)NCc1ccc(Oc2ccc(OC(F)(F)F)cc2)cc1 [compound 226, 6-Bromo-2-ethyl-N-(4-(4-(trifluoromethoxy)phenoxy)benzyl)imidazo[1,2-a]pyridine-3-carboxamide] | < 40 | 152.9 °C | – |
| CCc1nc2ccc(Cl)cn2c1C(=O)NCc1ccc(N2CC(C)CC(C)C2)cc1 (centres unmarked) [compound 197, 6-Chloro-N-(4-(3,5-dimethylpiperidin-1-yl)benzyl)-2-ethylimidazo[1,2-a]pyridine-3-carboxamide] | > 69 | 157.2 to 158 °C | > 20 |
| CCc1nc2cc(Cl)ccn2c1C(=O)NCc1ccc(C(F)(F)F)cc1 [compound 155, 7-Chloro-2-ethyl-N-(4-(trifluoromethyl)benzyl)imidazo[1,2-a]pyridine-3-carboxamide] | < 40 | 196.2 to 196.9 °C | – |
| CCc1nc2cc(C(F)(F)F)ccn2c1C(=O)NCc1ccc(N2CCOCC2)cc1 [compound 290, 2-Ethyl-N-(4-morpholinobenzyl)-7-(trifluoromethyl)imidazo[1,2-a]pyridine-3-carboxamide] | < 40 | 174.1 °C | – |
| CCc1nc2ccc(Cl)cn2c1-c1nc(Cc2ccc(Oc3ccc(F)cc3)cc2)no1 [compound 289, 5-(6-Chloro-2-ethylimidazo[1,2-a]pyridin-3-yl)-3-(4-(4-fluorophenoxy)benzyl)-1,2,4-oxadiazole] | < 40 | 129.9 °C | – |
| CCC1=C(C(=O)NCc2ccc(N3CCC(C)(C)CC3)cc2)N2C=CC(Cl)=CC2N1 (centres unmarked) [compound 211, 7-Chloro-N-(4-(4,4-dimethylpiperidin-1-yl)benzyl)-2-ethyl-1,8a-dihydroimidazo[1,2-a]pyridine-3-carboxamide] | > 69 | 121.3 °C | 1 to 20 |
| CCc1nc2c[n+]([O-])ccn2c1C(=O)NCc1ccc(-c2ccc(Cl)cc2)cc1 [compound 310, 3-(((4′-Chloro-[1,1′-biphenyl]-4-yl)methyl)carbamoyl)-2-ethylimidazo[1,2-a]pyrazine 7-oxide] | 40 to 69 | 238 °C | 1 to 20 |
| CCc1nc2ccc(Cl)cn2c1C(=O)NC1CCN(Cc2ccc(OC(F)(F)F)cc2)CC1 [compound 309, 6-Chloro-2-ethyl-N-(1-(4-(trifluoromethoxy)benzyl)piperidin-4-yl)imidazo[1,2-a]pyridine-3-carboxamide] | 40 to 69 | 157 to 158 °C | 1 to 20 |
| CCc1nc2cc(Cl)ccn2c1C(=O)NCc1ccc(Oc2ccc(F)cc2)nc1 [compound 188, 7-Chloro-2-ethyl-N-((6-(4-fluorophenoxy)pyridin-3-yl)methyl)imidazo[1,2-a]pyridine-3-carboxamide] | 40 to 69 | 167 to 167.6 °C | – |

More lines, now with the values ahead:

| inhibition at 10 µM (Human 5-lipoxygenase) [%] | melting point | IC50 (Human 5-lipoxygenase) [µM] | SMILES |
| --- | --- | --- | --- |
| 40 to 69 | 203.7 °C | – | CCc1nc2cc(C)ccn2c1C(=O)NCc1ccc(N2CCN(c3ccc(F)cc3)CC2)cc1 [compound 220, 2-Ethyl-N-(4-(4-(4-fluorophenyl)piperazin-1-yl)benzyl)-7-methylimidazo[1,2-a]pyridine-3-carboxamide] |
| 40 to 69 | 212.5 °C | – | CCc1nc2cc(N3CCN(Cc4ccc(F)cc4)CC3)ccn2c1C(=O)NCc1ccc(N2CCOCC2)cc1 [compound 257, 2-Ethyl-7-(4-(4-fluorobenzyl)piperazin-1-yl)-N-(4-morpholinobenzyl)imidazo[1,2-a]pyridine-3-carboxamide] |
| < 40 | 208.5 °C | – | CCc1nc2cc(-c3cccnc3)ccn2c1C(=O)NCc1ccc(N2CCOCC2)cc1 [compound 305, 2-Ethyl-N-(4-morpholinobenzyl)-7-(pyridin-3-yl)imidazo[1,2-a]pyridine-3-carboxamide] |
| < 40 | 235.2 °C | – | CCc1nc2cc(N3CCN(c4ccccc4)CC3)ccn2c1C(=O)NCc1ccc(C(F)(F)F)cc1 [compound 246, 2-Ethyl-7-(4-phenylpiperazin-1-yl)-N-(4-(trifluoromethyl)benzyl)imidazo[1,2-a]pyridine-3-carboxamide] |
| > 69 | 137.1 to 137.6 °C | 1 to 20 | CCc1nc2cc(Cl)ccn2c1C(=O)NCc1ccc(N2CCN(Cc3ccc(OC(F)(F)F)cc3)CC2)cc1 [compound 157, 7-Chloro-2-ethyl-N-(4-(4-(4-(trifluoromethoxy)benzyl)piperazin-1-yl)benzyl)imidazo[1,2-a]pyridine-3-carboxamide] |
| < 40 | > 97.1 °C | – | CCc1nc2cc(Cl)ccn2c1C(=O)NCc1ccc(N2CC(COc3ccc(F)cc3)OC2=O)cc1 (centres unmarked) [compound 378, 7-chloro-2-ethyl-N-(4-(5-((4-fluorophenoxy)methyl)-2-oxooxazolidin-3-yl)benzyl)imidazo[1,2-a]pyridine-3-carboxamide] |
| < 40 | 179.1 to 180 °C | – | CCc1nc2cc(Cl)ccn2c1C(=O)NCc1ccc(N2CCC(O)CC2)cc1 [compound 199, 7-Chloro-2-ethyl-N-(4-(4-hydroxypiperidin-1-yl)benzyl)imidazo[1,2-a]pyridine-3-carboxamide] |
| < 40 | 186.5 °C | – | CCc1nc2cc(Cl)ccn2c1C(=O)NCc1ccc(N2CCC(COc3ccc(F)cc3)CC2)cc1 [compound 245, 7-Chloro-2-ethyl-N-(4-(4-((4-fluorophenoxy)methyl)piperidin-1-yl)benzyl)imidazo[1,2-a]pyridine-3-carboxamide] |
| 40 to 69 | 238 to 239.2 °C | – | CCCC(=O)NCc1ccc(N2CCN(c3ccc(CNC(=O)c4c(CC)nc5cc(Cl)ccn45)cc3)CC2)cc1 [compound 125, N-(4-(4-(4-(Butyramidomethyl)phenyl)piperazin-1-yl)benzyl)-7-chloro-2-ethylimidazo[1,2-a]pyridine-3-carboxamide] |
| < 40 | 195 °C | – | CCc1nc2cc(Cl)ccn2c1C(=O)NCc1ccc(N2CCOCC2)cc1 [compound 93, 7-Chloro-2-ethyl-N-(4-morpholinobenzyl)imidazo[1,2-a]pyridine-3-carboxamide] |
